Test results: ChEMBL document CHEMBL3797029, “Purinylpyridinylamino-based DFG-in/αC-helix-out B-Raf inhibitors: Applying mutant versus wild-type B-Raf selectivity indices for compound profiling” (Bioorg Med Chem, 2016)

Legend:
Set-up in all cases: scale not given: the % may be the effect or the level left
[1] = target: Serine/threonine-protein kinase 3 (Homo sapiens) (UniProt Q13188); assay: Inhibition of partial length wild type human MST2 expressed in bacterial system assessed as enzyme activity at 1 uM relative to control
[2] = target: Serine/threonine-protein kinase TAO2 (Homo sapiens) (UniProt Q9UL54); assay: Inhibition of partial length wild type human TAOK2 expressed in mammalian system assessed as enzyme activity at 1 uM relative to control
[3] = target: Mitogen-activated protein kinase 10 (Homo sapiens) (UniProt P53779); assay: Inhibition of partial length wild type human JNK3 expressed in mammalian system assessed as enzyme activity at 1 uM relative to control
[4] = target: Mitogen-activated protein kinase kinase kinase kinase 1 (Homo sapiens) (UniProt Q92918); assay: Inhibition of full length wild type human HPK1 expressed in bacterial system assessed as enzyme activity at 1 uM relative to control
[5] = target: Interferon-induced, double-stranded RNA-activated protein kinase (Homo sapiens) (UniProt P19525); assay: Inhibition of partial length wild type human PRKR expressed in bacterial system assessed as enzyme activity at 1 uM relative to control
[6] = target: Tyrosine-protein kinase BTK (Homo sapiens) (UniProt Q06187); assay: Inhibition of full length wild type human BTK expressed in mammalian system assessed as enzyme activity at 1 uM relative to control
[7] = target: MAP kinase-activated protein kinase 2 (Homo sapiens) (UniProt P49137); assay: Inhibition of partial length wild type human MAPKAPK2 expressed in bacterial system assessed as enzyme activity at 1 uM relative to control
[8] = target: Non-receptor tyrosine-protein kinase TYK2 (Homo sapiens) (UniProt P29597); assay: Inhibition of partial length wild type human TYK2 (catalytic JH1 domain) expressed in mammalian system assessed as enzyme activity at 1 uM relative to control
Non-receptor tyrosine-protein kinase TYK2 (Homo sapiens), sequence (P29597 whole entry, the tested form may be a part): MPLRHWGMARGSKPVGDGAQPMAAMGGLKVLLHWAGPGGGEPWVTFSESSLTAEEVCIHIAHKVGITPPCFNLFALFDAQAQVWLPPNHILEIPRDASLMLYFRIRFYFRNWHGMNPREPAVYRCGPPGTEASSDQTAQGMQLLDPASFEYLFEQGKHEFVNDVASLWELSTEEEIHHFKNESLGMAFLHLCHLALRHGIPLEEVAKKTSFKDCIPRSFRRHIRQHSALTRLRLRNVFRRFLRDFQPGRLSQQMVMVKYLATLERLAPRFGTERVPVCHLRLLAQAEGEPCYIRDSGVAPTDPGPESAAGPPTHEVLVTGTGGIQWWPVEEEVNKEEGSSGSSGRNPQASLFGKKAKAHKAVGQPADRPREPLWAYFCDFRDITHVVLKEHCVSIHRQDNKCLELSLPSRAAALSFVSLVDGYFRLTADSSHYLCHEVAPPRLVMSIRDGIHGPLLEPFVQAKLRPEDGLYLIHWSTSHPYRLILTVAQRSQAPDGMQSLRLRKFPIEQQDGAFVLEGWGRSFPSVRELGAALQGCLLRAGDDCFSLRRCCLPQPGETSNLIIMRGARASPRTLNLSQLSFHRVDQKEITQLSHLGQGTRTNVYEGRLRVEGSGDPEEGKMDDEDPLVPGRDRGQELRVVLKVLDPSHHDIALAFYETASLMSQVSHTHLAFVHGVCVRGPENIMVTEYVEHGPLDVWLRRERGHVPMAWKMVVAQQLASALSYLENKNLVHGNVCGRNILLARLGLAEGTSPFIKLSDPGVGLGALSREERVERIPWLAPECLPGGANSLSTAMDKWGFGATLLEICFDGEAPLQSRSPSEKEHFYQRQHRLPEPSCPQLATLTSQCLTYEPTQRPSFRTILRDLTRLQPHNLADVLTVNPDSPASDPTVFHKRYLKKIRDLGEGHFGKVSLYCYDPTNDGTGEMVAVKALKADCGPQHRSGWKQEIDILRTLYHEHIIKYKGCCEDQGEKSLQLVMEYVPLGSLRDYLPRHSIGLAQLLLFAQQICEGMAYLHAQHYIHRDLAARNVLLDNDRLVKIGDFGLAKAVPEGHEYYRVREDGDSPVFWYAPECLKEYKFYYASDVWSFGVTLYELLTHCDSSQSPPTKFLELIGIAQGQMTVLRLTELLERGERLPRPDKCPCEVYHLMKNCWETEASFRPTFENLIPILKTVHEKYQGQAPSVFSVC

MAP kinase-activated protein kinase 2 (Homo sapiens), sequence (P49137 whole entry, looked up, the tested form may be a part): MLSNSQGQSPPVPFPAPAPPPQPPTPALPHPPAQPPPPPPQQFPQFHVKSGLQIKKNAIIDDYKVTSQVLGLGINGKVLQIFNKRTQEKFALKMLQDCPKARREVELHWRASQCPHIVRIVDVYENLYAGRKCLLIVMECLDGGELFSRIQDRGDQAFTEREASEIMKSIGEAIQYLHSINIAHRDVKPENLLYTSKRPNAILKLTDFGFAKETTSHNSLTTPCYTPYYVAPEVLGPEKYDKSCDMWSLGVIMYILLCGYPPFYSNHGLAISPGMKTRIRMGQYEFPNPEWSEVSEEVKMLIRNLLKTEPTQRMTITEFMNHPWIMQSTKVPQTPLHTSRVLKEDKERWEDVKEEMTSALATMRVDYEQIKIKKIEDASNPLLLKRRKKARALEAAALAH
Mitogen-activated protein kinase 10 (Homo sapiens), sequence (P53779 whole entry): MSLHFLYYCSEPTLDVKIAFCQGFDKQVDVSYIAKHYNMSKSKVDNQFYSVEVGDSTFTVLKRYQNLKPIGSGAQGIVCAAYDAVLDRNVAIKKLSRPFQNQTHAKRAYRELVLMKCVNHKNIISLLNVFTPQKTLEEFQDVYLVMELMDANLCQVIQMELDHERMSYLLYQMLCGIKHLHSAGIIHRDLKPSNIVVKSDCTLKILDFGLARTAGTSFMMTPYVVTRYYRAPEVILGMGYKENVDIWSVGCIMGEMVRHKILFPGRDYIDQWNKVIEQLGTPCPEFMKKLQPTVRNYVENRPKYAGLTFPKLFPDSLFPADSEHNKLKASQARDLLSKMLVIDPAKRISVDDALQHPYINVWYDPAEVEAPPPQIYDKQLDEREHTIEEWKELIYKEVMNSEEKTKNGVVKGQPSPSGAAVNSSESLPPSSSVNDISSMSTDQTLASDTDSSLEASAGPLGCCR
Serine/threonine-protein kinase 3 (Homo sapiens), sequence (Q13188 whole entry): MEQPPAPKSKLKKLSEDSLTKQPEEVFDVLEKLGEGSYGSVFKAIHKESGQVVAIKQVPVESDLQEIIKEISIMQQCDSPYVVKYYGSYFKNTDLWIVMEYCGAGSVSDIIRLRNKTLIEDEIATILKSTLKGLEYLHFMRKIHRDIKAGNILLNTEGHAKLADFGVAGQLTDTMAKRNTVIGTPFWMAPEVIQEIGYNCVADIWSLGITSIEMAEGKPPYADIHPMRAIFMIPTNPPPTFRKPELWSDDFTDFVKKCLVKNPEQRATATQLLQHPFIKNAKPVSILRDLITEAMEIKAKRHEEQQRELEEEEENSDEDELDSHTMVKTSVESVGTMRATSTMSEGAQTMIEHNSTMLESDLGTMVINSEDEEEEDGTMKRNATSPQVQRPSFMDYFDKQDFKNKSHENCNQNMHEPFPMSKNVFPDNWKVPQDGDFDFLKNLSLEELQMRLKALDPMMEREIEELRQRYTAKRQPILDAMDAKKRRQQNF
Mitogen-activated protein kinase kinase kinase kinase 1 (Homo sapiens), sequence (Q92918 whole entry, looked up): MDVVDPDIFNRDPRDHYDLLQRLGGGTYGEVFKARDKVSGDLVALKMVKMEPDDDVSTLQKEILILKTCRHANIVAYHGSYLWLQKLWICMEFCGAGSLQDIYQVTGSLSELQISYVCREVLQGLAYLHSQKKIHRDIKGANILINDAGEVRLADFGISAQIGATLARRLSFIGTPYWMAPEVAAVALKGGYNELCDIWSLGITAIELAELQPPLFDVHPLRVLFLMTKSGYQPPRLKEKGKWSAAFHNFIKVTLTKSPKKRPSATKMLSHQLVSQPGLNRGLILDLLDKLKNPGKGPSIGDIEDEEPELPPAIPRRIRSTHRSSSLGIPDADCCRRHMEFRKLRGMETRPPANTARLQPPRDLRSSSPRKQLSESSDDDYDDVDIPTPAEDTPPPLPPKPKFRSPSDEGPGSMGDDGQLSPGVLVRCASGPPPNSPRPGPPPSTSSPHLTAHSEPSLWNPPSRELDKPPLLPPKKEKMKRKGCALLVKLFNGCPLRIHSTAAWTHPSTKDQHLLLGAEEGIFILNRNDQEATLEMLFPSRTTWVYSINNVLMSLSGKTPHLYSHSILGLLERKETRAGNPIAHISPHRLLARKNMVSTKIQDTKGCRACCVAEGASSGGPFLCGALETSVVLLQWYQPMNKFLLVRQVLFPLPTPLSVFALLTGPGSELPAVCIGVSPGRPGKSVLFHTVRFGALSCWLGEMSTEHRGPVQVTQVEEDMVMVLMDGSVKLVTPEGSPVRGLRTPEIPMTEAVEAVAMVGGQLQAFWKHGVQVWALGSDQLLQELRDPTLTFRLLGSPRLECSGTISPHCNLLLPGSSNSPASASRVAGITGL
Serine/threonine-protein kinase TAO2 (Homo sapiens), sequence (Q9UL54 whole entry): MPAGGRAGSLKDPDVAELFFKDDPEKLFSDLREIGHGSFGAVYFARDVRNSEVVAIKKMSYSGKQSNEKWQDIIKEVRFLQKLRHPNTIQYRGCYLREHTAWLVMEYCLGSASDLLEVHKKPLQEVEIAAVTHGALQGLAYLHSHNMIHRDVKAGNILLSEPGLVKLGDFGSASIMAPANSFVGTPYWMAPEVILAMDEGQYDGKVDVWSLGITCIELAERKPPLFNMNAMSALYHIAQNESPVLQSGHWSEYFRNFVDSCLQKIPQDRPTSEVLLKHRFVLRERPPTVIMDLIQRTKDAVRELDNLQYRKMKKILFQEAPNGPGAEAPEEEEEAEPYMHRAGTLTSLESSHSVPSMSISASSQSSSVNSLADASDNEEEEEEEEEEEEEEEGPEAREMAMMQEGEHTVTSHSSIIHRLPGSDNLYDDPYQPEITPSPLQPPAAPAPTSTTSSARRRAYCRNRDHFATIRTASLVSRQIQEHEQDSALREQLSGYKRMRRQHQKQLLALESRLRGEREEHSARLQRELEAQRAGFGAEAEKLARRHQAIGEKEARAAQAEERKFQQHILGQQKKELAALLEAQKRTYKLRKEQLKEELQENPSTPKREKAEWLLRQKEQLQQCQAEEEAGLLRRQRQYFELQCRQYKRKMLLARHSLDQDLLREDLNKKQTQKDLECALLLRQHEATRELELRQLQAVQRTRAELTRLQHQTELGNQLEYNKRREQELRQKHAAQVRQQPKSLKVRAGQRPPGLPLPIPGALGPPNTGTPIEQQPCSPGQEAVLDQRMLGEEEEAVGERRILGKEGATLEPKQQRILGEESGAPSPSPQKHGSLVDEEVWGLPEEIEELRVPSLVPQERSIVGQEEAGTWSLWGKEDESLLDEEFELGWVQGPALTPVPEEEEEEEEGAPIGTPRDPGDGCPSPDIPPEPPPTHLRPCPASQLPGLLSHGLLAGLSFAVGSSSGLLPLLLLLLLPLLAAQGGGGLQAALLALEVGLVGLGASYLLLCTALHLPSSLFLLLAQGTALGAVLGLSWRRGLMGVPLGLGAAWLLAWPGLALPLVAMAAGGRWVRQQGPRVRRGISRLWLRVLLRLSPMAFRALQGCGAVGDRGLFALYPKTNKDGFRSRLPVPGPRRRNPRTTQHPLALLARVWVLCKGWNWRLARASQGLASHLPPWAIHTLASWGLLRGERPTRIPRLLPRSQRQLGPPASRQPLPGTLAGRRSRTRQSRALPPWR

Activity [1]: 91%
Activity [2]: 94%
Activity [3]: 89%
Activity [4]: 87%
Activity [5]: 83%
Activity [6]: 95%
Activity [7]: 83%
Activity [8]: 100%
Compound: CN(C)S(=O)(=O)Nc1ccc(F)c(Nc2ncccc2-c2ncnc3[nH]cnc23)c1F
